This note sets out measurements from PubChem BioAssay (NCI).

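These data come from cells grown in 96-well plates and exposed to compound for 48 hours at five concentrations. Here, GI50 denotes the concentration required for 50% inhibition of growth. At the TGI there is no net growth.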

The first experiment concerns NCI-H23 lung. The experiment is described as follows: inhibition of tumour cell growth, NCI panel, 48 h.
Take `O=C([CH-]C(=O)c1ccccc1)c1ccccc1.O=C([CH-]C(=O)c1ccccc1)c1ccccc1.[La+3].[OH-].[OH3+]`: the GI50 was 12.2 µM and the TGI stood at 48.6 µM.

As for `CN(CCCn1c2c(c3ccccc3c1=O)C(=O)c1ccccc1-2)CCCn1c2c(c3ccccc3c1=O)C(=O)c1ccccc1-2`, the GI50 is 0.249 µM and the TGI turned out to be 5.25 µM.

With `CCC[CH2][Sn]1([CH2]CCC)[O]C(=O)c2cccnc2[O]1`, the GI50 was 1.33 µM and the TGI amounted to 2.99 µM.

With `COC1CC(OS(=O)(=O)c2ccc([N+](=O)[O-])cc2)C(OC(=O)c2ccccc2)C(C)O1` (stereo not given), the TGI was > 100 µM.

`CCOc1ccccc1N1C(=O)C(=O)C(c2nc3ccccc3o2)C(=O)C1=O`: the TGI is > 100 µM.

`CCS(CC)(CC)CC1CCCC2=CCC(P(=O)(c3ccccc3)c3ccccc3)CC21` (stereo not given) came in with a TGI of 25.6 µM.

`CC(=O)OCC1OC(n2cnc(C(N)=S)c2N)C(OC(C)=O)C1OC(C)=O` (stereo not given): the TGI was > 100 µM.

Turning to `COc1ccc2n[se]nc2c1`, the TGI is > 100 µM.

As for `Cn1cc(C(=O)NCCC(=N)N)cc1NC(=O)C1=[N+](C)C=C(NC(=O)c2cccc(C(=O)NC3=CC(C(=O)Nc4cc(C(=O)NCCC(=N)N)cn4C)=[N+](C)C3)c2)C1`, the TGI is > 100 µM.

The test system of the next experiment is SK-MEL-5 melanoma. The experiment is described as follows: inhibition of tumour cell growth, NCI panel, 48 h.
Take `CCN(CC)c1c(C(=O)/C=C/c2ccc(OC)cc2)c(-c2ccccc2)nn(C)c1=O`: the TGI was found to be 21.5 µM.

As to `CN1C(=Nc2ccccc2)SC1=Nc1ccccc1`, the TGI was > 100 µM.

`Oc1ccccc1/C=C/c1csnn1`: the TGI is > 100 µM.

Turning to `CC(=O)CC(=O)OC1CC(C)CCC1C(C)C` (stereo not given), the TGI was > 100 µM.

As to `CP1(=O)CCCCC1`, the TGI is > 100 µM.

As for `Cc1ccc(S(=O)(=O)OC2CSS(=O)CC2OS(=O)(=O)c2ccc(C)cc2)cc1` (stereo not given), the TGI turned out to be 30.1 µM.

On to `COc1cc2c(cc1C)NC(=O)/C2=C/c1ccccn1`, for which the GI50 was 4.49 µM and the TGI came to 27.3 µM.

Take `O=[N+]([O-])c1cc(C(F)(F)F)cc([N+](=O)[O-])c1CCl`: the TGI was 1.75 µM.

In the case of `Nc1ccnc(=O)[nH]1`, the TGI was > 100 µM.

Consider `COC(=O)/C(C)=C(/CCC1(C)OCCO1)O[Si](C)(C)C`, for which the TGI is > 100 µM.

`CCOC(=O)N1CCN(C=S)CC1`: the TGI was > 100 µM.

Regarding `COc1cc([C@@H]2OC[C@@H]3C(c4cc(OC)c5c(c4)OCO5)OC[C@@H]32)cc(OC)c1OC` (stereo not given in full), the TGI was > 100 µM.

With `CCc1cc(C(=O)OC)cn1C(=N)c1ccc(Cl)cc1`, the TGI was > 100 µM.

With `Cc1cc(=O)n(-c2ccccc2C)c(C)n1`, the TGI was > 100 µM.

In the case of `COc1ccc(Br)c(N/N=C2\CCCNC2=O)c1`, the TGI was > 100 µM.

Turning to `COc1cc2c(c(OC)c1OC)-c1ccc(SC)c(=O)cc1C(CO)C2` (stereo not given), the GI50 is < 0.01 µM.

Molecule `Cc1ccc2nc(NC(=O)C(=O)C(C#N)c3nc4ccccc4s3)sc2c1` (stereo not given) gave a TGI of 45.7 µM.

For the molecule `CC(C)C1CC[C@@H](C)C[C@@]1(O)CC(N)=O` (stereo not given in full), the TGI is > 100 µM.

As to `O=C([CH-]C(=O)c1ccccc1)c1ccccc1.O=C([CH-]C(=O)c1ccccc1)c1ccccc1.[La+3].[OH-].[OH3+]`, the GI50 was 10.3 µM and the TGI is 23.9 µM.

Consider `CN(CCCn1c2c(c3ccccc3c1=O)C(=O)c1ccccc1-2)CCCn1c2c(c3ccccc3c1=O)C(=O)c1ccccc1-2`, for which the GI50 was 6.57 µM and the TGI is > 100 µM.

On to `CCC[CH2][Sn]1([CH2]CCC)[O]C(=O)c2cccnc2[O]1`, for which the GI50 was 4.57 µM and the TGI was found to be 16.8 µM.

On to `COC1CC(OS(=O)(=O)c2ccc([N+](=O)[O-])cc2)C(OC(=O)c2ccccc2)C(C)O1` (stereo not given), for which the TGI is > 100 µM.

On to `CCOc1ccccc1N1C(=O)C(=O)C(c2nc3ccccc3o2)C(=O)C1=O`, for which the TGI is > 100 µM.

Take `CCS(CC)(CC)CC1CCCC2=CCC(P(=O)(c3ccccc3)c3ccccc3)CC21` (stereo not given): the TGI turned out to be 29.8 µM.

Regarding `CC(=O)OCC1OC(n2cnc(C(N)=S)c2N)C(OC(C)=O)C1OC(C)=O` (stereo not given), the TGI is > 100 µM.

In the case of `COc1ccc2n[se]nc2c1`, the TGI is > 100 µM.

For the molecule `Cn1cc(C(=O)NCCC(=N)N)cc1NC(=O)C1=[N+](C)C=C(NC(=O)c2cccc(C(=O)NC3=CC(C(=O)Nc4cc(C(=O)NCCC(=N)N)cn4C)=[N+](C)C3)c2)C1`, the TGI was > 100 µM.

For a further experiment, the system named is HOP-62 NSCLC. As to the kind of experiment: inhibition of tumour cell growth, NCI panel, 48 h.
Take `CCN(CC)c1c(C(=O)/C=C/c2ccc(OC)cc2)c(-c2ccccc2)nn(C)c1=O`: the TGI was > 100 µM.

As to `CN1C(=Nc2ccccc2)SC1=Nc1ccccc1`, the TGI is > 100 µM.

In the case of `Oc1ccccc1/C=C/c1csnn1`, the TGI is > 100 µM.

As to `CC(=O)CC(=O)OC1CC(C)CCC1C(C)C` (stereo not given), the TGI is > 100 µM.

As for `CP1(=O)CCCCC1`, the TGI was > 100 µM.

As to `Cc1ccc(S(=O)(=O)OC2CSS(=O)CC2OS(=O)(=O)c2ccc(C)cc2)cc1` (stereo not given), the TGI was determined as 36.7 µM.

As for `COc1cc2c(cc1C)NC(=O)/C2=C/c1ccccn1`, the GI50 is 4.24 µM and the TGI is > 100 µM.

In turn, `O=[N+]([O-])c1cc(C(F)(F)F)cc([N+](=O)[O-])c1CCl` registered a TGI of 30.6 µM.

In the case of `Nc1ccnc(=O)[nH]1`, the TGI is > 100 µM.

As to `COC(=O)/C(C)=C(/CCC1(C)OCCO1)O[Si](C)(C)C`, the TGI is > 100 µM.

In the case of `CCOC(=O)N1CCN(C=S)CC1`, the TGI was > 100 µM.

Regarding `COc1cc([C@@H]2OC[C@@H]3C(c4cc(OC)c5c(c4)OCO5)OC[C@@H]32)cc(OC)c1OC` (stereo not given in full), the TGI is > 100 µM.

On to `CCc1cc(C(=O)OC)cn1C(=N)c1ccc(Cl)cc1`, for which the TGI is > 100 µM.

For the molecule `Cc1cc(=O)n(-c2ccccc2C)c(C)n1`, the TGI is > 100 µM.

Turning to `Oc1c(C(Nc2cccc3cccnc23)c2ccccc2)ccc2cccnc12` (stereo not given), the TGI was > 100 µM.

With `COc1ccc(Br)c(N/N=C2\CCCNC2=O)c1`, the TGI was > 100 µM.

Take `COc1cc2c(c(OC)c1OC)-c1ccc(SC)c(=O)cc1C(CO)C2` (stereo not given): the GI50 is < 0.01 µM and the TGI is > 100 µM.

Regarding `Cc1ccc2nc(NC(=O)C(=O)C(C#N)c3nc4ccccc4s3)sc2c1` (stereo not given), the TGI worked out at 31.9 µM.

Regarding `O=C([CH-]C(=O)c1ccccc1)c1ccccc1.O=C([CH-]C(=O)c1ccccc1)c1ccccc1.[La+3].[OH-].[OH3+]`, the GI50 is 10.9 µM and the TGI worked out at 41.9 µM.
